Assay results as given in patent US11668699B2, “Compositions and methods for determining mechanical properties of cells” (Arizona Board of Regents on Behalf of the University of …, priority 2016, dated 2023).
Read-outs that look alike come from different tables or passages of the source.

Columns and labels:
platelets [1] = settings: for Platelet deformation along the axis of maximum extension, normalized to the original length: platelets treated with 0.4% paraformaldehyde, 1 MHz
Description: Gel filtered platelets were prepared as previously described, from whole blood drawn from aspirin and non-steroidal anti-inflammatory medication free volunteers providing informed consent (Sheriff, J., et al., High-shear stress sensitizes platelets to subsequent low-shear conditions. Ann Biomed Eng, 2010. 38(4): p. 1442-50).
A 127 μm-thick hollow polymer spacer was placed on top of the chip to create a fluid chamber and the chip was covered with a coverslip for microscopic observation. All chip glass surfaces were coated with Sigmacote (Sigma-Aldrich, MO, USA) and rinsed with D.I. water to prevent surface-induced platelet activation.
To visualize platelets they were first exposed to Alexa Fluor 594 conjugated wheat germ agglutinin (1 μg/mL, 10 mins, 37° C., Invitrogen, CA). Platelets were then diluted 100-200 fold (v/v) in isotonic buffer (Pommer, M. S., et al., Dielectrophoretic separation of platelets from diluted whole blood in microfluidic channels. Electrophoresis, 2008. 29(6): p. 1213-8) containing 8.5% w/v sucrose and 0.3% w/v dextrose until the medium conductivity reached ˜1500/cm. as measured by a Jenway 4520 conductivity meter (Jenway, Staffordshire, UK). 50 μl of the diluted platelets sample were pipetted into the fluid chamber of the microelectrode chip. An alternating electric current in a sine wave pattern was generated across the microelectrodes using a function generator (332220A, Agilent, CA,) connected to a wideband power amplifier (7600M, Krohn-hite, MA). The amplitude of applied voltage was monitor via digital oscilloscope (GDS-1102, GW Instek, CA). The sample chip was imaged via fluorescence microscopy (Eclipse E800, 100× oil, Nikon, N.Y.), images were captured via CCD (Sensicam 12bt CCD camera, Cooke Corporation, MI), processed and quantified using NIH Image J software.
In the studies, platelet deformations under sequential increase of applied voltage, from 0 to 90Vpk-pk at 15V steps, were measured at a frequency of 1 MHz and the result is shown in FIG. 4A. […] Images of deformed platelets were captured in a duration ˜5s.

platelets [2] = assay: Platelet activation assay: cell surface expression of P-selectin by immunofluorescence; assay type: cell-based, human; settings: 0.125 μM thrombin, 10 mins, 37° C.; mean ± standard error, >70 platelets
Description: (§1) Platelet activation level was quantified via cell surface expression of P-selectin utilizing immunohistochemical staining (Hsulin, S. C., et al., A Platelet Membrane-Protein Expressed during Platelet Activation and Secretion-Studies Using a Monoclonal Antibody Specific for Thrombin-Activated Platelets. Journal of Biological Chemistry, 1984. 259(14): p. 9121-9126; Berman, C. L., et al., A Platelet Alpha Granule Membrane-Protein That Is Associated with the Plasma-Membrane after Activation-Characterization and Subcellular-Localization of Platelet Activation Dependent Granule-External Membrane-Protein. Journal of Clinical Investigation, 1986. 78(1): p. […] Platelets were paraformaldehyde fixed (3%, 20 mins) rinsed and incubated (30 min., 37° C.) with FITC Mouse Anti-Human CD62P (50 μl, 1:5 (v/v) dilution in PBS, BD Biosciences, CA) and imaged using fluorescence microscopy. Fluorescence intensity levels were measured following background subtraction. […] Activation of the positive and negative controls was also quantified via the chemically modified prothrombin-based platelet activation state (PAS) assay (Jesty, J. and D. Bluestein, Acetylated prothrombin as a substrate in the measurement of the procoagulant activity of platelets: Elimination of the feedback activation of platelets by thrombin. Analytical Biochemistry, 1999. 272(1): p. 64-70.).

platelets [3] = assay: Chemically modified prothrombin-based platelet activation state (PAS) assay; assay type: cell-based, human; settings: 0.125 μM thrombin, 10 mins, 37° C.
Description: as §1

Question: With paraformaldehyde as the substance, how does the “Decrease in deformation compared to untreated platelets” value (platelets [1]; 0.4% paraformaldehyde, 90Vpk-pk applied voltage, p-value=0.0002) read?
Answer: 2.75 times

Question: And the “Young's modulus of platelets (slope of linear fitted stress-deformation curve)” value (platelets [1]; platelets treated by 0.4% paraformaldehyde, stress from Maxwell stress tensor simulation)?
Answer: 8.5+/−1.5 kPa

Question: And the “Platelet deformation along the axis of maximum extension, normalized to the original length” value (platelets [1]; applied voltage 15 V)?
Answer: 0.73±1.33%

Question: And the “Platelet deformation along the axis of maximum extension, normalized to the original length” value (platelets [1]; applied voltage 90 V)?
Answer: 4.90±1.98%

Question: How did the “P-selectin expression, averaged fluorescence intensity level” value (platelets [2]) turn out when thrombin was run?
Answer: 1526.15±75.04

Question: And the “Platelet activation level (PAS assay)” value (platelets [3])?
Answer: 24.7%
